Assay results from article PMC11767423, “Design, Synthesis, and Antioxidant and Anti-Tyrosinase Activities of (Z)-5-Benzylidene-2-(naphthalen-1-ylamino)thiazol-4(5H)-one Analogs: In Vitro and In Vivo Insights” (Molecules, 2025).

Key:
[1] = Assay for DPPH radical scavenging; conditions: 500 μM; 30 min in the dark
Procedure: To evaluate the DPPH radical-scavenging efficacy of 1–15, a DPPH methanol solution was mixed with compounds 1–15, and the mixture was left in the dark. After 30 min, the radical-scavenging efficacy of each compound was determined by measuring the optical density at 517 nm. Vitamin C (L-ascorbic acid) was used for comparing radical-scavenging activity, and all test samples were treated at 500 μM.
DPPH was dissolved in methanol to prepare a 0.2 mM solution, and test samples (vitamin C [L-ascorbic acid, LA; positive control] and 1–15) were dissolved in DMSO to prepare a 5 mM solution. The DPPH methanolic solution (180 μL) was added to the test sample DMSO solution (20 μL) in each well of a 96-well microplate and kept in a place without light for 30 min at 22 °C. Using a VersaMax™ ELISA reader, the optical density of each well was recorded at 517 nm to determine DPPH radical-scavenging activity.

[2] = test system: B16F10 cellular tyrosinase; assay: Cellular tyrosinase activity assay in B16F10 cells; format: cell-based; conditions: α-MSH + IBMX, 72 h
Procedure: We analyzed the effect of 10 on B16F10 cellular tyrosinase activity to determine whether the ability of 10 inhibiting melanogenesis results from its ability to inhibit cellular tyrosinase activity.
A 6-well microplate containing 5 × 10^3 B16F10 cells per well was incubated at 37 °C for 24 h. Compound 10 was added to each well at 5, 10, and 20 μM and incubated for 1 h, and then stimulators (1 μM α-MSH and 200 μM IBMX) were added to each well before 72 h incubation.
To measure the cellular tyrosinase activity, the cells incubated for 72 h were washed 2 times with PBS, exposed to a 100 μL lysis buffer solution containing 5 μL 2 mM phenylmethylsulfonyl fluoride, 5 μL 20% Triton X-100, and 90 μL 50 mM phosphate buffer (pH 6.5), and cultivated for 30 min at −80 °C. After the lysates were centrifuged at 4 °C for 10 min at 10,000× g, an aliquot (80 μL) of the supernatants was added to each well of a 96-well microplate containing 20 μL of 10 mM L-DOPA. Data for the optical density at 475 nm were obtained every 1 min for 10 min at 37 °C using an ELISA reader to determine cellular tyrosinase activity.

B16F10 cells [3] = assay: Cell viability on B16F10 cells (EZ-Cytox); format: cell-based; conditions: 72 h; for B16F10 cell viability: 1, 2, 5, 10 and 20 μM
Procedure: Therefore, we investigated whether these compounds exert tyrosinase inhibitory activity in B16F10 mammalian cells. We examined the effects of these compounds on B16F10 cell viability. Cell viability was assessed for 72 h at five concentrations (1, 2, 5, 10, and 20 μM) of compounds 10 and 15.
The viability of B16F10 cells in the presence of compounds 10 and 15 was assayed. A 96-well microplate containing 1 × 10^3 B16F10 cells per well was incubated at 37 °C in a humid environment containing 5% CO2 for 24 h. Test samples (10 and 15) were added to each well at concentrations of 0, 1, 2, 5, 10, and 20 μM and incubated for 72 h. Each well was exposed to a 10 μL EZ-Cytox solution (EZ-500®, DoGenBio, Seoul, Republic of Korea) and incubated for 2 h. To determine cell viability, well optical density was measured at 450 nm using an ELISA reader.

B16F10 cells [4] = assay: In situ cellular tyrosinase activity assay (L-DOPA staining); format: cell-based; conditions: α-MSH + IBMX, 72 h, then L-DOPA 2 h
Procedure: The effect of 10 on cellular tyrosinase activity was investigated in situ using L-DOPA and B16F10 cells. This experimental method allows for the direct observation of cellular melanin production. […] After 72 h of incubation, the cells were treated with L-DOPA for 2 h to induce melanin production.
A 24-well plate containing 1 × 10^3 B16F10 cells per well was incubated at 37 °C for 24 h. […] After incubation for 72 h, the cells were fixed for 50 min using paraformaldehyde (4%), rinsed twice with PBS, and permeabilized for 2 min using Triton X-100 (0.1%). The cells were washed with PBS and 500 μL of 2 mM L-DOPA solution was added. After the cells were incubated at 37 °C for 2 h, stained images were obtained using a camera connected to a microscope (Motic, Hong Kong, China).

B16F10 cells [5] = assay: Melanin content assay in B16F10 cells; format: cell-based; conditions: α-MSH + IBMX, 72 h
Procedure: After 72 h, the effect of compound 10 on melanin biosynthesis was determined. A 6-well microplate containing 5 × 10^3 B16F10 cells per well was incubated at 37 °C for 24 h. Compound 10 was added to each well at 5, 10, and 20 μM and incubated for 1 h, and then stimulators (1 μM α-MSH and 200 μM IBMX) were added to each well before 72 h incubation. […] For the melanin content quantification, the cells were lysed at 60 °C for 1 h in 100 μL 1N-NaOH solution containing 10% DMSO after washing 2 times with phosphate-buffered saline (PBS). The cell lysates were transferred to a 96-well microplate and the optical density was measured at 405 nm using an ELISA reader to calculate the melanin content in each well.

[6] = Assay for ABTS+ radical scavenging; conditions: 100 μM
Procedure: The ABTS^+-scavenging efficacy of compounds 1–15 was determined by oxidizing ABTS with K2S2O8 to prepare ABTS^+. The prepared ABTS^+ solution was mixed with the test samples (1–15 and Trolox, a positive control) and the radical-scavenging efficacy of the test samples was explored by measuring the decrease in optical density at 732 nm. All test samples were tested at 100 μM.
To acquire ABTS^+ radicals, ABTS (14 mM in 20 mL H2O) was mixed with K2S2O8 (4.9 mM in 20 mL H2O), an oxidant agent, and stored at 22 °C in a place without light for 15 h. The absorbance of the prepared ABTS^+ radical solution was adjusted to 0.70 ± 0.01 at 732 nm by adding methanol. Test samples (Trolox [positive control] and 1–15) were dissolved in a co-solvent (DMSO:EtOH = 1:10 [v/v]). The diluted ABTS^+ radical solution (90 μL) was added to the test sample solution (10 μL) in each well of a 96-well plate and held at 22 °C in the dark for 2 min. The optical density of each well was recorded at 732 nm every 1 min for 10 min using an ELISA reader. The final concentration of test samples was 100 μM. %Radical-scavenging activity was determined using the formula 100 × [(Abscon − Abssam)/Abscon], where Abscon and Abssam represent the optical densities of the control and the samples, respectively.

mushroom tyrosinase = mushroom tyrosinase (Agaricus bisporus, UniProt C7FF04); assay: Kinetic experiment using mushroom tyrosinase (Lineweaver–Burk and Dixon plots); format: biochemical; conditions: for Ki: Dixon plots, substrate L-DOPA; for inhibition mechanism: Lineweaver–Burk plots, L-DOPA 1–16 mM
Procedure: The plots for inhibitors 10 and 15 were obtained by measuring the initial rate of dopachrome production in the presence of various L-DOPA substrate concentrations (Figure 3A,C). For the kinetic experiments, compounds 10 and 15 were used at 0, 1, 2, and 4 μM and at 0, 4, 8, and 16 μM, respectively.
Ki, known as the dissociation constant or inhibition constant, describes the binding affinity between the enzyme and inhibitor. […] Dixon plots were acquired by plotting the inverse of the initial dopachrome formation rate against the inhibitor concentration (Figure 3B,D). Each Dixon plot produces four lines that merge at one point in the second quadrant. The absolute value of the x co-ordinate of the merge point represents the Ki value. […] The lower the Ki value, the stronger the binding affinity. Thus, compound 10 bound more strongly to the tyrosinase active site than compound 15.
The identification of the tyrosinase inhibition mechanism was carried out by kinetic studies using mushroom tyrosinase. Test samples (10 μL; compounds 10 and 15) were mixed with a mushroom tyrosinase aqueous solution (20 μL; 100 units/mL) and a substrate solution (170 μL; substrate [L-DOPA] and 17.2 mM sodium phosphate pH 6.5 buffer) in each well of 96-well microplate. To obtain Lineweaver–Burk plots for kinetic analysis, L-DOPA and test samples were used at various concentrations: 0, 1, 2, and 4 μM for 10; 0, 4, 8, and 16 μM for 15; and 1, 2, 4, 8, and 16 mM for L-DOPA. During a 30 min incubation period, the initial dopachrome formation rate was calculated by measuring the optical density at 475 nm at 5 min intervals using an ELISA reader. Lineweaver–Burk plots were prepared by plotting the inverse of the substrate concentration against the inverse of the initial dopachrome formation rate in the presence of four different concentrations of compounds 10 and 15.

[7] = test system: tyrosinase activity of zebrafish larvae; assay: Tyrosinase activity in zebrafish larvae; format: in vivo, Danio rerio; conditions: 76 hpf
Procedure: To quantify the tyrosinase activity in zebrafish larvae, 60 zebrafish larvae at 76 hpf were divided into three Eppendorf tubes and centrifuged at 10,000× g for 10 min at 4 °C. After removing the supernatant, the residue was lysed using radioimmunoprecipitation assay buffer (100 μL) (Biosedang, Gyeonggi-do, Republic of Korea) and homogenized for 5 min using a sonicator. The lysate was centrifuged at 10,000× g for 10 min at 4 °C. The supernatants were transferred to a new Eppendorf tube and the protein content was quantified using a bicinchoninic acid protein assay kit (Thermo Fisher Scientific, Waltham, MA, USA). An aliquot (100 μL) of 1 mM L-DOPA was added to the new Eppendorf tube containing a total of 300 μg of protein in 100 μL of protein lysate. Eppendorf tubes were incubated for 1 h at 37 °C and then transferred to each well of a 96-well plate. The absorbance of each well was measured at 475 nm to determine the tyrosinase activity of zebrafish larvae.

zebrafish larvae = assay: Zebrafish depigmentation assay using zebrafish embryos; format: in vivo, Danio rerio; conditions: 0.1 mM vs kojic acid 20 mM; treated at 28 hpf, read at 76 hpf
Procedure: Zebrafish embryos were used to determine whether the synthesized compounds could inhibit melanin synthesis in vivo. […] The degree of depigmentation in zebrafish larvae was confirmed by photography 48 h later (Figure 8A). The density of the zebrafish larvae was measured using a CS analyzer 3.2 (Atto, Tokyo, Japan). […] To obtain zebrafish (wild type, Danio rerio) eggs for the experiment, six male and nine female zebrafish were raised separately in oxygen-connected tanks. Dried brine shrimp (Artemia salina, San Francisco Bay Brand, San Francisco, CA, USA) were fed as food three times per day. They were raised at 28 °C with 10 h of light blocking and 14 h of light exposure. The evening before obtaining zebrafish eggs, three females and two males were placed together in three zebrafish mating cages, and the light was blocked. The following morning, mating was induced by exposure to light. Harvested zebrafish eggs, obtained free of charge from the Zebrafish Center for Disease Modeling (Chungnam National University, Daejeon, Republic of Korea), were kept in an E3 embryonic solution containing methylene blue (MB) until the dechorionation process was performed. […] The pigmented areas in the zebrafish larval photographs were determined using an ATTO CS analyzer 3.2 (Tokyo, Japan).

Chain of mushroom tyrosinase (C7FF04 1-392): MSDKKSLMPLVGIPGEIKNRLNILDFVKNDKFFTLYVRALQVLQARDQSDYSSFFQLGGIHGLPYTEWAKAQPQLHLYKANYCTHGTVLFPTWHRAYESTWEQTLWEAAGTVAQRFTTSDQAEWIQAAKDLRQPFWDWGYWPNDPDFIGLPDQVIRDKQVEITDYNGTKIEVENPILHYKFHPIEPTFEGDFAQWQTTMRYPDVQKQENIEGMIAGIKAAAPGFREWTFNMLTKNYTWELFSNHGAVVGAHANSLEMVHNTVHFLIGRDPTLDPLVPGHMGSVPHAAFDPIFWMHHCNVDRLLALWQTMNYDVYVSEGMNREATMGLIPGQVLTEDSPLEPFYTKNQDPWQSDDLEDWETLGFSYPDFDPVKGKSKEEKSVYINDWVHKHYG

## COc1cc(/C=C2\SC(Nc3cccc4ccccc34)=NC2=O)ccc1O [Compound 5, (Z)-5-(4-Hydroxy-3-methoxybenzylidene)-2-(naphthalen-1-ylamino)thiazol-4(5H)-one]
[1]
  DPPH radical scavenging: 62%

## COc1ccc(/C=C2\SC(Nc3cccc4ccccc34)=NC2=O)cc1O [Compound 6, (Z)-5-(3-Hydroxy-4-methoxybenzylidene)-2-(naphthalen-1-ylamino)thiazol-4(5H)-one]
[1]
  DPPH radical scavenging: 21%

## CCOc1cc(/C=C2\SC(Nc3cccc4ccccc34)=NC2=O)ccc1O [Compound 7, (Z)-5-(3-Ethoxy-4-hydroxybenzylidene)-2-(naphthalen-1-ylamino)thiazol-4(5H)-one]
[1]
  DPPH radical scavenging: 61%

## O=C1N=C(Nc2cccc3ccccc23)S/C1=C\c1ccc(O)cc1O [Compound 10, (Z)-5-(2,4-Dihydroxybenzylidene)-2-(naphthalen-1-ylamino)thiazol-4(5H)-one]
[2]; 10 μM
  cellular tyrosinase activity: slightly more potent tyrosinase inhibitory potency than kojic acid at 20 μM
[2]; 20 μM
  cellular tyrosinase activity: reduced cellular tyrosinase activity to almost the level of cellular tyrosinase activity in the untreated control
[2]; 5, 10 and 20 μM
  cellular tyrosinase activity: dose-dependent decrease in cellular tyrosinase activity
[1]
  DPPH radical scavenging: 51%
B16F10 cells [3]
  B16F10 cell viability: no perceptible effect on B16F10 cell viability
B16F10 cells [4]; 20 μM
  in situ melanin formation (L-DOPA staining): reduced melanin formation to the level of the untreated control
B16F10 cells [4]; 5, 10 and 20 μM
  in situ melanin formation (L-DOPA staining): dose-dependently decreased melanin formation
B16F10 cells [5]; 5 μM, kojic acid at 20 μM
  stimulator-induced melanin content: reduced the stimulator-induced melanin content levels similarly to kojic acid
B16F10 cells [5]; 20 μM, controls 100%
  melanin content level: 86%
B16F10 cells [5]; 5, 10 and 20 μM
  stimulator-induced melanin content: strongly reduced stimulator-induced melanin content dose-dependently
[6]
  ABTS+ scavenging: 97%
Mushroom tyrosinase
  Ki: 2.04 µM
  inhibition mechanism: compete with the substrates for binding to the active site of tyrosinase

## COc1cc(/C=C2\SC(Nc3cccc4ccccc34)=NC2=O)cc(OC)c1O [Compound 13, (Z)-5-(4-Hydroxy-3,5-dimethoxybenzylidene)-2-(naphthalen-1-ylamino)thiazol-4(5H)-one]
[1]
  DPPH radical scavenging: 51%
[6]
  ABTS+ scavenging: 97%

## CC(C)(C)c1cc(/C=C2\SC(Nc3cccc4ccccc34)=NC2=O)cc(C(C)(C)C)c1O [Compound 14, (Z)-5-(3,5-Di-tert-butyl-4-hydroxybenzylidene)-2-(naphthalen-1-ylamino)thiazol-4(5H)-one]
[1]
  DPPH radical scavenging: 68%
[6]
  ABTS+ scavenging: 95%

## O=C1N=C(Nc2cccc3ccccc23)S/C1=C\c1ccc(O)c(Br)c1 [Compound 15, (Z)-5-(3-Bromo-4-hydroxybenzylidene)-2-(naphthalen-1-ylamino)thiazol-4(5H)-one]
B16F10 cells [3]; 1 μM
  cytotoxicity in B16F10 cells: significant cytotoxicity was observed
B16F10 cells [3]
  B16F10 cell viability: clearly reduced cell viability in a concentration-dependent manner
[7]; 0.3 mM vs kojic acid 20 mM
  tyrosinase activity of zebrafish larvae compared with kojic acid: comparable to that of kojic acid, even at a concentration 70 times lower
[7]; 0.1 and 0.3 mM
  tyrosinase activity of zebrafish larvae: decreased tyrosinase activity in a concentration-dependent manner
Zebrafish larvae
  depigmentation capacity in zebrafish larvae: depigmentation capacity similar to that of kojic acid, even at a concentration 200 times lower
Mushroom tyrosinase
  Ki: 4.87 µM
  inhibition mechanism: compete with the substrates for binding to the active site of tyrosinase

## O=C1O[C@H]([C@@H](O)CO)C(O)=C1O [Vitamin C, L-ascorbic acid, reference compound]
[1]
  DPPH radical scavenging: 90%
